Assay results reported in PubChem BioAssay (NCI).
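Values below derive from 48-hour exposures of cells grown in 96-well plates, with endpoints linearly interpolated between the two concentrations bracketing the appropriate inhibition level. GI50 is the concentration that inhibits growth by half. At the TGI there is no net growth.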

How the values were obtained:
Experiment in all cases: NCI tumour cell line growth inhibition, 48 h
[1] = tested on: CAKI-1 renal
[2] = tested on: HCT-15 colon
[3] = tested on: DMS 273 small cell lung
[4] = tested on: SN12C renal
[5] = tested on: M14 melanoma
[6] = tested on: SF-539 CNS
[7] = tested on: DLD-1 colon
[8] = tested on: OVCAR-3 ovarian
[9] = tested on: SNB-19 CNS
[10] = tested on: NCI/ADR-RES ovarian
[11] = tested on: MDA-MB-435

Structure (SMILES)	TGI [1]	TGI [2]	TGI [3]	TGI [4]	TGI [5]	TGI [6]	TGI [7]	TGI [8]	TGI [9]	TGI [10]	TGI [11]	GI50 [1]	GI50 [2]	GI50 [4]	GI50 [5]	GI50 [6]	GI50 [10]	GI50 [11]	GI50 [8]	GI50 [9]
CCOC(=O)c1ncoc1[C@H]1COC(C)(C)O1	> 100 µM	> 100 µM	> 100 µM	> 100 µM	> 100 µM	> 100 µM	> 100 µM	> 100 µM	> 100 µM	–	–	–	–	–	–	–	–	–	–	–
Cc1c(C(=O)CSc2nc3ccc([N+](=O)[O-])cc3[nH]2)c(=O)n(-c2ccccc2)n1C	> 100 µM	> 100 µM	> 100 µM	> 100 µM	> 100 µM	> 100 µM	> 100 µM	> 100 µM	> 100 µM	–	–	–	–	–	–	–	–	–	–	–
CCC1(OC(=O)CN2CCN(CCO)CC2)C(=O)OCc2c1cc1n(c2=O)Cc2cc3ccccc3nc2-1 (centres undefined)	–	26.2 µM	0.367 µM	29.8 µM	1.92 µM	1.73 µM	> 100 µM	3.81 µM	28.6 µM	7.99 µM	4.38 µM	–	–	–	–	–	–	–	–	–
CCOC(=O)N1CCN(Cc2cc(=O)n3cc(C)ccc3n2)CC1	> 100 µM	> 100 µM	–	> 100 µM	> 100 µM	> 100 µM	–	> 100 µM	> 100 µM	> 100 µM	> 100 µM	–	–	–	–	–	–	–	–	–
COc1cc(N(CCC#N)CCC#N)ccc1/C(N=Nc1ccc(C)cc1)=N/NC(=O)c1cc(Br)ccc1O	66.6 µM	33 µM	–	54.9 µM	> 100 µM	> 100 µM	–	67.3 µM	> 100 µM	> 100 µM	> 100 µM	–	–	–	–	–	–	–	–	–
COc1ccccc1/C=C1\Sc2scc(-c3cccc([N+](=O)[O-])c3)[n+]2C1=O	6.24 µM	5.92 µM	–	11.5 µM	18.6 µM	3.56 µM	–	26.7 µM	25.8 µM	34.2 µM	18.2 µM	–	–	–	–	–	–	–	–	–
O=C1CC2CC=C[C@H]3c4cc5c(cc4C(=O)N1C23)OCO5 (some centres undefined)	–	> 50 µM	> 50 µM	> 50 µM	> 50 µM	> 50 µM	> 50 µM	> 50 µM	> 50 µM	–	–	–	–	–	–	–	–	–	–	–
COC(=O)C1Cc2c([nH]c3ccccc23)C(c2cccc(O)c2)N1 (centres undefined)	> 100 µM	> 100 µM	–	> 100 µM	47.4 µM	> 100 µM	–	> 100 µM	> 100 µM	49.2 µM	36.6 µM	–	–	–	–	–	–	–	–	–
O=C1C=C(N2CCCC2)C=C(N2CCCC2)C1	> 100 µM	> 100 µM	> 100 µM	–	> 100 µM	–	> 100 µM	> 100 µM	> 100 µM	–	–	–	–	–	–	–	–	–	–	–
CC[C@@H](CCCC[C@@H]1CC[C@H]2CC(=O)C[C@@H]12)OC	> 100 µM	> 100 µM	–	> 100 µM	> 100 µM	> 100 µM	–	> 100 µM	> 100 µM	> 100 µM	> 100 µM	–	–	–	–	–	–	–	–	–
CCOc1ccc(N2C(=O)C3c4[nH]c5ccccc5c4C4CCC(C(C)(C)C)CC4C3C2=O)cc1 (centres undefined)	–	> 100 µM	> 100 µM	> 100 µM	> 100 µM	> 100 µM	> 100 µM	–	> 100 µM	–	–	–	–	–	–	–	–	–	–	–
Nc1nc(Cl)c(C=O)c(NCC2(CO)CC(CCc3ccccc3)C2)n1 (centres undefined)	3.14 µM	13.8 µM	–	19 µM	6.25 µM	17.8 µM	–	24.4 µM	27.9 µM	47.6 µM	17.9 µM	–	–	–	–	–	–	–	–	–
CC(C)(C)c1cc(C(=O)/C=C/c2ccc(O)c(O)c2O)cc(C(C)(C)C)c1O	15.6 µM	14.8 µM	–	13.8 µM	20.6 µM	10.2 µM	–	> 100 µM	> 29.3 µM	14.8 µM	36.7 µM	–	–	–	–	–	–	–	–	–
COc1ccc(/C=C2\CN(C(=O)CCN3CCC(=NO)CC3)C/C(=C\c3ccc(OC)cc3)C2=O)cc1	3.74 µM	5.56 µM	–	5.92 µM	4.54 µM	3.18 µM	–	3.56 µM	7.55 µM	20.8 µM	3.49 µM	1820 nM	2.15 µM	2.27 µM	2.04 µM	1.71 µM	3.72 µM	1.76 µM	1.89 µM	2.58 µM
COc1ccc2c(c1)c1nn(CCN(C)C)c3ccc4c(=O)n(CCN(C)C)c(=O)n2c4c13	0.601 µM	0.173 µM	–	0.517 µM	0.324 µM	1.77 µM	–	0.255 µM	0.635 µM	0.277 µM	0.166 µM	–	–	–	–	–	–	–	–	–
Cc1nc(-c2ccccc2)c(C)n2c1nc1ccccc12	> 100 µM	74.5 µM	–	> 100 µM	46 µM	> 100 µM	–	54.8 µM	> 100 µM	69.7 µM	59.5 µM	–	–	–	–	–	–	–	–	–

Structure (SMILES)	TGI [1]	TGI [2]	TGI [3]	TGI [4]	TGI [5]	TGI [6]	TGI [7]	TGI [8]	TGI [9]	TGI [10]	TGI [11]	GI50 [1]	GI50 [2]	GI50 [4]	GI50 [5]	GI50 [6]	GI50 [10]	GI50 [11]	GI50 [8]	GI50 [9]
CC(CC(=O)CO[C@H]1[C@H](O)[C@@H](O)[C@@H](O)[C@@H]2NC(=O)c3c(cc4c(c3O)OCO4)[C@H]21)OC1OC(CO)C(O)C(O)C1O (some centres undefined)	> 100 µM	3.43 µM	–	2.14 µM	2.17 µM	1.86 µM	–	2.65 µM	7.89 µM	3.97 µM	4.5 µM	–	–	–	–	–	–	–	–	–
O=C(c1ccccc1)c1nn(-c2ccc(Cl)cc2)c2nc3nc(-c4ccccc4)cc(=O)n3nc12	> 100 µM	> 100 µM	–	59.8 µM	> 100 µM	45.4 µM	–	77.8 µM	> 100 µM	> 100 µM	> 100 µM	> 100000 nM	38.2 µM	24 µM	31.6 µM	22.4 µM	35.5 µM	6.65 µM	24.5 µM	39.9 µM
CN(C)CCN1C(=O)CC[C@@]2(C)C1=CC[C@@H]1[C@@H]2CC[C@@]2(C)[C@H]1CC[C@]2(C)O	> 100 µM	> 100 µM	–	> 100 µM	> 100 µM	> 100 µM	–	> 100 µM	> 100 µM	> 100 µM	> 100 µM	–	–	–	–	–	–	–	–	–
NS(=O)(=O)c1ccc(NC(=O)c2cc([N+](=O)[O-])cc([N+](=O)[O-])c2)cc1	> 100 µM	> 100 µM	–	90.7 µM	> 100 µM	> 100 µM	–	84.9 µM	> 100 µM	> 100 µM	35 µM	–	–	–	–	–	–	–	–	–
CCN(CC)CCNC(=O)c1ccc([N+](=O)[O-])cc1OC	> 100 µM	> 100 µM	> 100 µM	> 100 µM	> 100 µM	> 100 µM	> 100 µM	> 100 µM	> 100 µM	–	–	–	–	–	–	–	–	–	–	–
COc1c(Cl)ccc(Cl)c1C(=O)NNC(=O)c1c(Cl)c(Cl)c(Cl)c(Cl)c1-c1nc2ccc(C(=O)c3ccccc3)cc2[nH]1	> 100 µM	> 100 µM	–	> 100 µM	> 100 µM	> 100 µM	–	> 100 µM	> 100 µM	> 100 µM	> 100 µM	–	–	–	–	–	–	–	–	–
O=C(O)C(CS)NCc1c2ccccc2[n+]([O-])c2ccccc12 (centres undefined)	> 100 µM	> 100 µM	> 100 µM	> 100 µM	> 100 µM	–	> 100 µM	> 100 µM	> 100 µM	–	–	–	–	–	–	–	–	–	–	–
O=C1Nc2cccc3ncn(c23)C2=C1CCCC2	–	> 100 µM	> 100 µM	> 100 µM	–	> 100 µM	> 100 µM	–	> 100 µM	–	–	–	–	–	–	–	–	–	–	–
CCOC(=O)C1(Cc2ccccc2)Cc2cc3c(cc2C1)CCC3	> 100 µM	> 100 µM	–	> 100 µM	> 100 µM	> 100 µM	–	> 100 µM	> 100 µM	> 100 µM	> 100 µM	–	–	–	–	–	–	–	–	–
Cn1c(=O)n2n(c1=O)Cc1cccc3cccc(c13)C2	> 100 µM	> 100 µM	–	> 100 µM	> 100 µM	> 100 µM	–	> 100 µM	> 100 µM	> 100 µM	> 100 µM	–	–	–	–	–	–	–	–	–
CC(=O)Nc1ccc(Nc2cc(=O)n(C)c(=O)[nH]2)cc1	> 100 µM	> 100 µM	–	> 100 µM	> 100 µM	> 100 µM	–	> 100 µM	> 100 µM	> 100 µM	> 100 µM	–	–	–	–	–	–	–	–	–
Cc1ccc(-c2sc(-c3ccc(C)cc3)c3c2C2CCC3C2)cc1	> 50 µM	> 50 µM	–	> 50 µM	> 50 µM	> 50 µM	–	> 50 µM	> 50 µM	> 50 µM	> 50 µM	–	–	–	–	–	–	–	–	–
N=C(/C=C/c1ccc(-c2cn3cc(/C=C/C(=N)N4CCCC4)ccc3n2)cc1)N1CCCC1	> 100 µM	> 100 µM	–	> 100 µM	> 100 µM	> 100 µM	–	> 100 µM	> 100 µM	> 100 µM	> 100 µM	–	–	–	–	–	–	–	–	–
CC(=O)Oc1ccc(N2C(=O)C3c4[nH]c5ccccc5c4C4CCC(C(C)(C)C)CC4C3C2=O)cc1 (centres undefined)	16 µM	12.3 µM	–	4.17 µM	13.2 µM	18.3 µM	–	7.07 µM	9.84 µM	14.7 µM	22.6 µM	–	–	–	–	–	–	–	–	–
CCOC(=O)c1cccc(NC(=O)CBr)c1	1.16 µM	3.66 µM	–	0.907 µM	2.75 µM	2.6 µM	–	3.34 µM	16.6 µM	4.39 µM	2.51 µM	–	–	–	–	–	–	–	–	–
